Measurements published in patent publication US11059842B2, “Monosaccharide amine and 3-nitro-2-phenyl-2H-chromene based inhibitors of glucose kinases” (UNIVERSITY OF SOUTH CAROLINA, priority 2019, dated 2021).
Several values for one entry are separate records, joined by “and”; a condition that tells them apart may be missing. Equal values may be shown once.

Columns and labels:
[1] = tested on: T. cruzi (Tulahuen strain) infective form (trypomastigote and amastigote life stages) co-cultured in NIH-3T3 fibroblasts; experiment: T. cruzi infective form growth inhibition in NIH-3T3 fibroblasts; format: cell-based, Trypanosoma cruzi; details: Tulahuen strain infective form in NIH-3T3 fibroblasts; N = 3 (Amphotericin B control: 6 replicates)
Method: The curve and the IC50 were calculated from measurements determined in triplicate and expressed as percent growth inhibition of the T. cruzi parasite infection of mammalian cells.
Compounds were further screened against the T. cruzi (Tulahuen strain) infective form (trypomastigote and amastigote life stages) co-cultured in NIH-3T3 fibroblasts to establish IC50 values. Assays were performed in triplicate.
The single dose in vitro study included administration of the compounds in 80 μM inhibitor concentrations (N=3). Amphotericin B was used as a control.

[2] = target: Homo sapiens hexokinase IV (HsHxKIV) (Homo sapiens (Human), UniProt P35557); experiment: HsHxKIV enzyme-inhibition screening assay (Example 1); format: biochemical; details: 20 μM compound; N = 1
Method: (§1) D-Glucose was also tested as a control with alternative substrates. The protein expression work for TcGlcK and HsHxKIV were each made possible through the E. coli strain BL21(DE3) system. Purification of each enzyme was performed through cobalt-NTA chromatography followed by size-exclusion chromatography; assessment of purity was performed by SDS-PAGE. In enzymatic assays, a time-optimum (TOPT) was determined to be 120 seconds for TcGlcK and 600 seconds for HsHxKIV; all assays were run at room temperature. A general reaction scheme included a first reaction in which the monosaccharide, ATP, and Mg^2+ react with the enzyme, e.g., TcGlcK, forming a hexose-phosphate and ADP. In a second reaction, hexose-phosphate with the assistance of glucose-6-phosphate dehydrogenase (G6PDH) and NADP^+ was converted to the lactone form of the hexose-phosphate and NADPH. Fluorescence of NADPH was monitored using a fluorescence microplate reader with […] wavelengths of 340 nm and 485 nm, respectively.
(§2) FIG. 4 and FIG. 5 present typical Michaelis-Menten enzyme kinetic plots for D-glucose. As shown, the NADP^+ to NADPH turnover rate is a function of [D-glucose] & [ATP] for TcGlcK (FIG. 4) and HsHxKIV (FIG. 5) absent inhibition. Michaelis-Menten constant (KM) values, which were used as the set final assay concentrations of substrates D-glucose and ATP for the primary screens, were determined for both TcGlcK and HsHxKIV in triplicate runs. The KM values for TcGlcK with respect to D-glucose and ATP were 0.40 mM and 0.34 mM, respectively. The KM values for HsHxKIV with respect to D-glucose and ATP were 43 mM and 0.20 mM, respectively.

[3] = target: Trypanosoma cruzi glucokinase (TcGlcK) (Trypanosoma cruzi (strain CL Brener), UniProt Q4E4E1); format: biochemical; details: percentage of inhibition at 20 μM of the compound; N = 1
Method: as §1, with “In enzymatic assays, a time-optimum (TOPT) was determined to be 120 seconds for TcGlcK and 600 seconds for HsHxKIV; all assays were run at room temperature.” left out
Michaelis-Menten constant (KM) values, which were used as the set final assay concentrations of substrates D-glucose and ATP for the primary screens, were determined for both TcGlcK and HsHxKIV in triplicate runs. […]
The cutoff percentage was calculated by using normalized percent inhibition that took into consideration the positive and negative controls of the fluorescence readout from a fluorescence microplate reader. In addition, an unconfirmed hit was selected if the activity measurement was three standard deviations away from the mean of the positive controls.

[4] = tested on: glucose-6-phosphate dehydrogenase (G6PDH); experiment: G6PDH confirmatory assay (coupling enzyme counter-screen); format: biochemical; details: 20 μM compound; quadruplicate
Method: The 16 compounds showing substantial inhibition against TcGlcK at compound concentrations of 20 μM were then examined in a confirmatory assay in which the amino sugar analogues were at a concentration of 20 μM and were tested against the assay's only coupling enzyme, G6PDH, to verify enzyme activity; the assay was performed in quadruplicate. […] These confirmed hits included representatives from all three monosaccharide scaffolds tested (i.e., D-GlcN, D-ManN, and D-GalN).

T. brucei = T. brucei in vitro screen; format: cell-based; details: Trypanosoma brucei; average; concentrations up to 10 μM, N=3
Method: Compounds 19-31 were screened against T. brucei. The single dose in vitro study included administration of the compounds in increasing concentrations up to 10 μM (N=3 for each compound concentration value). Media and T. bricei+0.5% SDS were used as control.

TcGlcK = TcGlcK (Trypanosoma cruzi (strain CL Brener), UniProt Q4E4E1); experiment: TcGlcK Michaelis-Menten kinetics and substrate range; format: biochemical
Method: as §1, §2
All phosphorylated hexoses were shown getting converted into their corresponding products by G6PDH, in abundant quantities through a 30-second time frame. This permitted the standard TcGlcK […] assay, which was timed for […], to be used as an assay to analyze alternative substrates.

Chain of Homo sapiens hexokinase IV (HsHxKIV) (P35557 whole entry): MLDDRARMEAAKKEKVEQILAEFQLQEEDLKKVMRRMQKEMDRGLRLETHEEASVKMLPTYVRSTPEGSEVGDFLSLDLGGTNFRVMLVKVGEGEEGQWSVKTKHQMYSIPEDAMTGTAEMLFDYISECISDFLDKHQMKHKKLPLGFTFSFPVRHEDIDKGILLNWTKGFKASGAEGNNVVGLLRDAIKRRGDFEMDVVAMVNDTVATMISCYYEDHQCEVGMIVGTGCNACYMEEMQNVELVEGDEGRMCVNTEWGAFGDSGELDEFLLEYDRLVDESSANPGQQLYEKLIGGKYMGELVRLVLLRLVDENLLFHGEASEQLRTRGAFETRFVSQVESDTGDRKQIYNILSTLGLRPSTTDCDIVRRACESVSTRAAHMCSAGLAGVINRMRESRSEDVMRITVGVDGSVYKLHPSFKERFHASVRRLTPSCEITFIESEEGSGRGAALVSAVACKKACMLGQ
Chain of TcGlcK (Q4E4E1 1-376): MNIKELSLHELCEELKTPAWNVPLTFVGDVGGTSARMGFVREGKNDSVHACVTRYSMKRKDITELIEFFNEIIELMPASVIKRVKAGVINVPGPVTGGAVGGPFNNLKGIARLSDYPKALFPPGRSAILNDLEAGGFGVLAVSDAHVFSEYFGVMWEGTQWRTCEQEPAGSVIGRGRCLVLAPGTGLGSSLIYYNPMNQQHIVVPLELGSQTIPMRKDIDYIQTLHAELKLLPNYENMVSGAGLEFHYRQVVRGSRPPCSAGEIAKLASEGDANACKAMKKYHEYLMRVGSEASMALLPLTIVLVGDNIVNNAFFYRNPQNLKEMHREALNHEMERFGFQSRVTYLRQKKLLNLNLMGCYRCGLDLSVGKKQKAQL
Chain of Trypanosoma cruzi glucokinase (TcGlcK) (Q4E4E1 1-376): as above

Row | Structure (SMILES) | IC50 [1] | HsHxKIV Inh20(%) [2] | TcGlcK Inh20 (%) [3] | G6PDH Inh20 (%) [4] | IC50 (T. brucei) | increase of TcGlcK activity from 15 mM to 50 mM substrate (TcGlcK) | TcGlcK activity relative to D-glucose (100%) (TcGlcK; substrate concentration 15 mM) | TcGlcK activity relative to D-glucose (100%) (TcGlcK; substrate concentration 50 mM)
1 | C[C@@H]1[C@H](O)[C@@H](C)/C=C/C=C/C=C/C=C/C=C/C=C/C=C/[C@H](O[C@@H]2O[C@H](C)[C@@H](O)[C@H](N)[C@@H]2O)C[C@@H]2O[C@](O)(C[C@@H](O)C[C@@H](O)[C@H](O)CC[C@@H](O)C[C@@H](O)CC(=O)O[C@H]1C)C[C@H](O)[C@H]2C(=O)O [Amphotericin B, reference compound] | 1.08 ± 0.84 µM | – | – | – | – | – | – | –
2 | O=C(N[C@H]1C(O)O[C@H](CO)[C@@H](O)[C@@H]1O)c1cccc(Br)c1 (stereo partly shown) [Compound 2] | 66.2 ± 3.83 µM | 31% | 57% | 0.0 ± 0.0% | – | – | – | –
3 | O=C(N[C@H]1C(O)O[C@H](CO)[C@@H](O)[C@@H]1O)c1ccc(CCl)cc1 (stereo partly shown) [Compound 3] | 52.9 ± 2.72 µM | 35% | 42% | 0.0 ± 0.0% | – | – | – | –
4 | O=C(N[C@H]1C(O)O[C@H](CO)C(O)[C@@H]1O)c1ccoc1 (stereo partly shown) [Compound 6] | 49.9 ± 2.99 µM | 41% | 51% | 0.0 ± 0.0% | – | – | – | –
5 | O=C(N[C@@H]1C(O)O[C@H](CO)[C@@H](O)[C@@H]1O)c1ccccc1 (stereo partly shown) [Compound 7] | 43.5 ± 0.68 µM | 55% | 71% | 0.0 ± 0.0% | – | – | – | –
6 | O=C(N[C@@H]1C(O)O[C@H](CO)[C@@H](O)[C@@H]1O)c1cccc(Br)c1 (stereo partly shown) [Compound 8] | 38.4 ± 1.4 µM | 27% | 35% | 0.0 ± 0.0% | – | – | – | –
7 | O=C(N[C@@H]1C(O)O[C@H](CO)[C@@H](O)[C@@H]1O)c1ccc(CCl)cc1 (stereo partly shown) [Compound 9] | 38.4 ± 1.41 µM | 28% | 33% | 0.0 ± 0.0% | – | – | – | –
8 | O=C(N[C@@H]1C(O)O[C@H](CO)[C@@H](O)[C@@H]1O)c1cc2ccccc2o1 (stereo partly shown) [Compound 11] | 42.5 ± 6.5 µM | 12% | 10% | – | – | – | – | –
9 | O=C(N[C@@H]1C(O)O[C@H](CO)[C@@H](O)[C@@H]1O)c1ccoc1 (stereo partly shown) [Compound 12] | 67.5 ± 1.75 µM | 32% | 58% | 0.0 ± 0.0% | – | – | – | –
10 | O=C(N[C@H]1C(O)O[C@H](CO)[C@H](O)[C@@H]1O)c1ccccc1 (stereo partly shown) [Compound 13] | 55.3 ± 11.9 µM | 38% | 59% | 0.0 ± 0.0% | – | – | – | –
11 | O=C(N[C@H]1C(O)O[C@H](CO)[C@H](O)[C@@H]1O)c1cccc(Br)c1 (stereo partly shown) [Compound 14] | 19.9 µM | 30% | 31% and 30.8% | 0.0 ± 0.0% | – | – | – | –
12 | O=C(N[C@H]1C(O)O[C@H](CO)[C@H](O)[C@@H]1O)c1ccc(CCl)cc1 (stereo partly shown) [Compound 15] | 37.9 ± 4.77 µM | 8% | 27% | – | – | – | – | –
13 | Cc1ccc(C(=O)N[C@H]2C(O)O[C@H](CO)[C@H](O)[C@@H]2O)o1 (stereo partly shown) [Compound 16] | 20.2 µM | 41% | 30% | 0.0 ± 0.0% | – | – | – | –
14 | O=C(N[C@H]1C(O)O[C@H](CO)[C@H](O)[C@@H]1O)c1cc2ccccc2o1 (stereo partly shown) [Compound 17] | 66.6 ± 13.7 µM | 37% | 39% | 0.0 ± 0.0% | – | – | – | –
15 | O=C(N[C@H]1C(O)O[C@H](CO)[C@H](O)[C@@H]1O)c1ccoc1 (stereo partly shown) [Compound 18] | 36.4 ± 1.47 µM | 47% | 56% | 0.0 ± 0.0% | – | – | – | –
16 | CCOc1ccc(C2Oc3ccc(Br)cc3C=C2[N+](=O)[O-])cc1OC (stereo not shown) [Compound 23, 6-Bromo-2-(4-ethoxy-3-methoxyphenyl)-3-nitro-2H-chromene] | – | – | – | – | 0.614 µM | – | – | –
17 | COc1ccc(C2Oc3c(cc(Br)cc3OC)C=C2[N+](=O)[O-])cc1OC (stereo not shown) [Compound 25, 6-Bromo-2-(3,4-dimethoxyphenyl)-8-methoxy-3-nitro-2H-chromene] | – | – | – | – | 0.515 µM | – | – | –
18 | COc1ccc(C2Oc3ccc(Br)cc3C=C2[N+](=O)[O-])cc1OC (stereo not shown) [Compound 26, 6-Bromo-2-(3,4-dimethoxyphenyl)-3-nitro-2H-chromene] | – | – | – | – | 0.435 µM | – | – | –
19 | COc1ccc(C2Oc3c(Br)cc(Br)cc3C=C2[N+](=O)[O-])cc1OC (stereo not shown) [Compound 27, 6,8-Dibromo-2-(3,4-dimethoxyphenyl)-3-nitro-2H-chromene] | – | – | – | – | 0.416 µM | – | – | –
20 | CCOc1ccc(C2Oc3c(Br)cc(Br)cc3C=C2[N+](=O)[O-])cc1OC (stereo not shown) [Compound 28, 6,8-Dibromo-2-(4-ethoxy-3-methoxyphenyl)-3-nitro-2H-chromene] | – | – | – | – | 0.356 µM | – | – | –
21 | CCOc1ccc(C2Oc3c(cc(Br)cc3OC)C=C2[N+](=O)[O-])cc1OC (stereo not shown) [Compound 29, 6-Bromo-2-(4-ethoxy-3-methoxyphenyl)-8-methoxy-3-nitro-2H-chromene] | – | – | – | – | 0.743 µM | – | – | –
22 | CCOc1ccc(C2Oc3c(Cl)cc(Cl)cc3C=C2[N+](=O)[O-])cc1OCC (stereo not shown) [Compound 30, 6,8-Dichloro-2-(3,4-diethoxyphenyl)-3-nitro-2H-chromene] | – | – | – | – | 0.664 µM | – | – | –
23 | O=C(CO)[C@@H](O)[C@H](O)[C@H](O)CO [D-fructose] | – | – | – | – | – | 2.58 fold | 18.9% | 48.8%
24 | O=C[C@H](O)[C@@H](O)[C@@H](O)[C@H](O)CO [D-galactose] | – | – | – | – | – | – | 0.00% | 0.00%
25 | O=C[C@@H](O)[C@@H](O)[C@H](O)[C@H](O)CO [D-mannose] | – | – | – | – | – | 2.69 fold | 6.18% | 16.6%
